The values that follow come from US20140296346A1, “Crystalline Forms of (-)-(1R,2R)-3-(3-dimethylamino-1-ethyl-2-methylpropyl)-phenol hydrochloride” (priority 2004, published 2014).

Counter-ions that a name gives are not always drawn.

Series [1] in a line: Variable temperature X-ray powder diffraction experiment. The class given is physicochemical. The conditions noted are these: variable temperature XRPD. As to the method:
Variable Temperature X-Ray Powder Diffraction Experiment
A variable temperature X-ray powder diffraction experiment was run thereby producing Form B from Form A. Form A converted to Form B from 40-50° C. during the experiment.

Series [2] is described as follows: Stability of the crystalline form under ambient conditions.

In the case of `CC[C@@H](c1cccc(O)c1)[C@@H](C)CN(C)C` [Form A, (-)-(1R,2R)-3-(3-dimethylamino-1-ethyl-2-methylpropyl)-phenol hydrochloride], in series [1] (on heating), the “Temperature at which Form A converted to Form B” value is 40-50 °C. For the same molecule, in series [2], the “Stability at ambient conditions” value was “very stable”. Also, the “Stability under ambient conditions compared with Form B” value in series [2] (relative to Form B) was “more stable”.
As for `CC[C@@H](c1cccc(O)c1)[C@@H](C)CN(C)C.Cl` [Form B, (-)-(1R,2R)-3-(3-dimethylamino-1-ethyl-2-methylpropyl)-phenol hydrochloride], in series [1] (at lower temperature), the “Reversibility of the polymorphic conversion” value was “changing over into Form A at lower temperature”.
